Reference: ChEMBL document CHEMBL5356996, “Discovery of Novel NLRP3 Inflammasome Inhibitors Composed of an Oxazole Scaffold Bearing an Acylsulfamide” (ACS Med Chem Lett, 2023)
pIC50: −log10 of the molar value. In brackets after ≈: the same amount, converted by molar mass.

How the values were obtained:
[1] = biological target: T1, NACHT, LRR and PYD domains-containing protein 3 (Homo sapiens, UniProt Q96P20); experiment: Inhibition of NLRP3 in LPS/nigericin-induced human THP-1 cells assessed as inhibition of IL-1beta production pretreated with LPS for 3 hrs followed by incubation with compound for 15 mins and later stimulated with nigericin for 90 mins by AlphaLISA assay; type: cell-based
T1 sequence (Q96P20 whole entry, the tested form may be a part): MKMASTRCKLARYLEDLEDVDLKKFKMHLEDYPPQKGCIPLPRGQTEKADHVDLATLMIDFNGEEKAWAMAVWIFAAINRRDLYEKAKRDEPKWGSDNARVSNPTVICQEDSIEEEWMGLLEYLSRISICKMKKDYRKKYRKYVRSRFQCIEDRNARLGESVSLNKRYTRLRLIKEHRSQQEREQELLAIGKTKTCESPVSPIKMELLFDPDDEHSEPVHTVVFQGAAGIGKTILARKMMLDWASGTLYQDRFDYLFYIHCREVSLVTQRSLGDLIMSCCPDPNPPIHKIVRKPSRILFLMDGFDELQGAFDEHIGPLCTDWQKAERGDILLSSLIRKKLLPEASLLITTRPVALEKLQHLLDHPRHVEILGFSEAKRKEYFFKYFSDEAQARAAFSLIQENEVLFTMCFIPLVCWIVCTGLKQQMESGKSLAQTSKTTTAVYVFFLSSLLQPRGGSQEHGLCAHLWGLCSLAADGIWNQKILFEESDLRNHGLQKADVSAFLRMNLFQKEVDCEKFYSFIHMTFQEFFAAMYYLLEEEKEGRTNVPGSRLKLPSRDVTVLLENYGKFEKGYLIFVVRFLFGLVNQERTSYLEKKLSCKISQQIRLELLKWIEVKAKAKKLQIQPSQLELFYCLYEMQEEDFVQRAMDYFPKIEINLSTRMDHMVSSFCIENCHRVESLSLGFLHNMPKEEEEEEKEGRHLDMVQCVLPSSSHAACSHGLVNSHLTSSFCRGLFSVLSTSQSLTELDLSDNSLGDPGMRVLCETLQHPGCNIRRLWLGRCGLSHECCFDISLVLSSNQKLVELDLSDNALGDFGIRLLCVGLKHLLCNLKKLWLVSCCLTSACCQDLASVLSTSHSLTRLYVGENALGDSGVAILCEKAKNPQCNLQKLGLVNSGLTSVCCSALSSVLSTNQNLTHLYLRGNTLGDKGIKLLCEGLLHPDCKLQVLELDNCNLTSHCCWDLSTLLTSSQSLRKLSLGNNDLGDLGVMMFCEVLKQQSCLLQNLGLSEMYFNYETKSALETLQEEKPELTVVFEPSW

[2] = Solubility of the compound in FaSSIF at pH 6.5 incubated for 4 to 24 hrs by LC/MS analysis; type: physicochemical; conditions: time 4-24 hrs
[3] = Lipophilicity, logD of the compound; type: physicochemical; conditions: octanol/water
[4] = Apparent permeability of the compound in human Caco-2 cells at 25 umol/L incubated for 2 hrs by LC/MS/MS analysis; type: ADME, cell-based; conditions: dose 25 µmol/L
[5] = biological target: T1, NACHT, LRR and PYD domains-containing protein 3; experiment: Inhibition of NLRP3 in human whole blood assessed as inhibition of IL-1beta production pretreated with LPS for 3 hrs followed by incubation with compound for 0.5 hrs and later incubated with ATP for 1.5 hrs by AlphaLISA assay; type: tissue-based
[6] = Plasma protein binding in human by equilibrium dialysis method; type: ADME, cell-free; conditions: read-out: PPB (converted)
[7] = biological target: NLR family CARD domain-containing protein 4 (Homo sapiens, UniProt Q9NPP4); experiment: Inhibition of NLRC4 (unknown origin) in PMA-differentiated human THP-1 cells assessed as inhibition of IL-1 beta production pretreated for 15 mins followed by flagellin stimulation and measured after 18 hrs by AlphaLISA assay; type: cell-based
NLR family CARD domain-containing protein 4, sequence (Q9NPP4 whole entry, the tested form may be a part): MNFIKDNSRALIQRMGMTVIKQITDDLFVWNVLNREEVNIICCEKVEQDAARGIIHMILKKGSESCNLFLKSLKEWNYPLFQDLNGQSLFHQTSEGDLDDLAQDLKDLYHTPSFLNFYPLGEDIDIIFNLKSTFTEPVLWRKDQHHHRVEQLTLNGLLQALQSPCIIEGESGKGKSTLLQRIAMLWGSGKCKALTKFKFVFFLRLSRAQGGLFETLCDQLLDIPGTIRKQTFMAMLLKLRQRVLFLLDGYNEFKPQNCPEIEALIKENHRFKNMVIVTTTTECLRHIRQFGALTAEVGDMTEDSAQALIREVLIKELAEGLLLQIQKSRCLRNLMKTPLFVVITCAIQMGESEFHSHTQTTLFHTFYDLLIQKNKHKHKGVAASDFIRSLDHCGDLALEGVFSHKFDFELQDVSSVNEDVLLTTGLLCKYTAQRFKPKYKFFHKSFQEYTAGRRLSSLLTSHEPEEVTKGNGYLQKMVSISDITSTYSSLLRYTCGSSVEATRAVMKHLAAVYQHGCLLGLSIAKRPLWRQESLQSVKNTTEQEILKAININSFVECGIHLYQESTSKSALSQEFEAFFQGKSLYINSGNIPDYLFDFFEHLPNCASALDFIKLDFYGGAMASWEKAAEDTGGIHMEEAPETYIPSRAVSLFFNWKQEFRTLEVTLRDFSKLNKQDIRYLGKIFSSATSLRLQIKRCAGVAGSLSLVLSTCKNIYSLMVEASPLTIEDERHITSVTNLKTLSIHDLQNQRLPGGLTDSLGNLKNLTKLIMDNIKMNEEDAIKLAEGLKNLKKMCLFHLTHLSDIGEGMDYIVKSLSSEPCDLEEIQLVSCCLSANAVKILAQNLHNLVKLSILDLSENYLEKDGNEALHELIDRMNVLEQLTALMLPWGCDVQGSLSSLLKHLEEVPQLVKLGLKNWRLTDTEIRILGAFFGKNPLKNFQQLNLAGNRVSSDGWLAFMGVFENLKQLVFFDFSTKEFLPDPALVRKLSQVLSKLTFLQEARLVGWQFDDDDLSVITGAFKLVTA

[8] = Plasma protein binding in rat by equilibrium dialysis method; type: ADME, cell-free; conditions: read-out: PPB (converted)
[9] = Plasma protein binding in mouse by equilibrium dialysis method; type: ADME, cell-free; conditions: read-out: PPB (converted)
[10] = Metabolic stability in human liver microsomes assessed as compound remaining incubated for 60 mins; type: ADME, Microsome; conditions: read-out: Stability
[11] = Metabolic stability in rat liver microsomes assessed as compound remaining incubated for 60 mins; type: ADME, Microsome; conditions: read-out: Stability
[12] = Metabolic stability in mouse liver microsomes assessed as compound remaining incubated for 60 mins; type: ADME, Microsome; conditions: read-out: Stability
[13] = Metabolic stability in dog liver microsomes assessed as compound remaining incubated for 60 mins; type: ADME, Canis lupus familiaris, Microsome; conditions: read-out: Stability
[14] = Mean residence time in Sprague-Dawley rat at 0.3 mg/kg, iv; type: ADME, organism-based; conditions: in vivo
[15] = Total body clearance in Sprague-Dawley rat at 0.3 mg/kg, iv measured for 25 hrs; type: ADME, organism-based; conditions: in vivo
[16] = Volume of distribution at steady state in Sprague-Dawley rat at 0.3 mg/kg, iv measured for 25 hrs; type: ADME, organism-based; conditions: in vivo, read-out: Vdss
[17] = Cmax in Sprague-Dawley rat at 1 mg/kg, po measured for 25 hrs; type: ADME, organism-based; parameters: dose 1 mg/kg, time 25 hrs, route po; conditions: in vivo
[18] = Mean residence time in Sprague-Dawley rat at 1 mg/kg, po; type: ADME, organism-based; conditions: in vivo
[19] = Oral bioavailability in Sprague-Dawley rat at 1 mg/kg measured for 25 hrs; type: ADME, organism-based; conditions: in vivo
Cytochrome P450 3A4 = Cytochrome P450 3A4 (Homo sapiens, UniProt P08684); experiment: Inhibition of CYP3A4 in human liver microsomes using testosterone and midazolam as substrates by LC-MS/MS analysis; type: ADME, Microsome
Cytochrome P450 3A4, sequence (P08684 whole entry): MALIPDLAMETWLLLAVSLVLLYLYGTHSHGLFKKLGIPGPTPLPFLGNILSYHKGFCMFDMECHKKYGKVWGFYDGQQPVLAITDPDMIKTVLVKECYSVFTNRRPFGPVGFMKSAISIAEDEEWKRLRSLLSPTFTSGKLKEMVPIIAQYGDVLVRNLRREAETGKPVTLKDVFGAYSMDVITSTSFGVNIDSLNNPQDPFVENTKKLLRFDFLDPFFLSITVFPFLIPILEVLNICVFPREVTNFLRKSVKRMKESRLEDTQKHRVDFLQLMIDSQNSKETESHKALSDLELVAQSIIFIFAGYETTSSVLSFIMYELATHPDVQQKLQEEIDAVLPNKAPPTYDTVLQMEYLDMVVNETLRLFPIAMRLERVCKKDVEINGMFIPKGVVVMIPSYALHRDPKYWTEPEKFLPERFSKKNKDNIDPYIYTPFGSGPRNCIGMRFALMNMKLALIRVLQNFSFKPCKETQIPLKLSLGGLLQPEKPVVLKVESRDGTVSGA

Mus musculus [20] = experiment: Anti-inflammatory activity against LPS-stimulated C57BL/6J mouse assessed as reduction in IL-1beta level administered orally pretreated for 0.5 hrs before LPS challenge and measured after 4 hrs by ELISA; type: functional, organism-based; conditions: dose 1-10 mg/kg, route po, time 4.5 hrs
Mus musculus [21] = experiment: Anti-inflammatory activity against adriamycin-induced glomerulonephritis BALB/c mouse model assessed as decrease in urine albumin-to-creatinine ratio administered orally for 2 weeks and measured for 24 hrs; type: functional, organism-based; conditions: dose 30-300 mg/kg, route po, time 15.0 day
THP-1 = experiment: cells; conditions: Homo sapiens
Description: Inhibition of pyroptosis in human THP-1 cells pretreated with LPS for 3 hrs followed by incubation with compound for 15 mins and later stimulated with nigericin for 90 mins by CytoTox-Glo assay

| SMILES | pIC50 [1] | solubility [2] [µM] | logD [3] | also measured |
| --- | --- | --- | --- | --- |
| CS(=O)(=O)NC(=O)c1cnc(Nc2c3c(cc4c2CCC4)CCC3)o1 | 5.17 | 475 (≈ 172 µg/mL) | 2.1 | Papp at 2 h, 25 µM [4]: 0.13 ×10⁻⁶ cm/s |
| Cc1ccc(C(C)C)cc1Nc1nc(C(=O)NS(=O)(=O)N(C)C)co1 | 6.85 |  | 2.7 | pIC50 [5]: 5.17 |
| Cc1ccc(C(F)(F)F)cc1Nc1nc(C(=O)NS(=O)(=O)N(C)C)co1 |  |  | 2.4 | fraction unbound [6]: 0.004 |
| CCOC(=O)c1cnc(Nc2c3c(cc4c2CCC4)CCC3)o1 |  | 11.1 (≈ 3.47 µg/mL) | 4.6 |  |
| CN(C)S(=O)(=O)NC(=O)c1cnc(Nc2c3c(cc4c2CCC4)CCC3)o1 |  | > 475 | 2.3 | Papp at 2 h, 25 µM [4]: 1.2 ×10⁻⁶ cm/s |
| NC(=O)c1cnc(Nc2c3c(cc4c2CCC4)CCC3)o1 | < 4.52 | 45.6 (≈ 12.9 µg/mL) |  |  |
| CC(=O)N1CCCN(S(=O)(=O)NC(=O)c2coc(Nc3cc(C(F)(F)F)ccc3C)n2)CC1 |  |  | 2.2 | fraction unbound [6]: 0.018 |
| COC(=O)[C@@H]1CCCN1C(=O)Nc1c2c(cc3c1CCC3)CCC2 | < 5.00 |  |  |  |
| Cc1ccc(C(C)(C)C)cc1Nc1nc(C(=O)NS(=O)(=O)N(C)C)co1 |  |  | 3 | pIC50 [5]: 5.11 |
| Cc1ccc(C(F)(F)F)cc1Nc1nc(C(=O)NS(=O)(=O)N2CCCCC2)co1 |  |  | 3.1 | fraction unbound [6]: < 0.001 |
| Cc1ccc(C(F)(F)F)cc1Nc1nc(C(=O)NS(=O)(=O)N(C)C(C)C)co1 |  |  | 3.3 | fraction unbound [6]: < 0.001 |
| COC(=O)[C@H]1CCCN1C(=O)Nc1c2c(cc3c1CCC3)CCC2 | < 5.00 |  |  |  |
| CN1CCN(C(=O)c2cnc(Nc3c4c(cc5c3CCC5)CCC4)o2)S1(=O)=O |  | 18.1 (≈ 7.28 µg/mL) | 3.8 | Papp at 2 h, 25 µM [4]: 15.5 ×10⁻⁶ cm/s |
| Cc1ccc(C2CCC2)cc1Nc1nc(C(=O)NS(=O)(=O)N(C)C)co1 |  |  | 2.9 |  |
| CCOC(=O)c1cnc(Nc2c3c(cc4c2CCC4)CCC3)[nH]1 | < 4.52 |  |  |  |
| CNC(=O)c1cnc(Nc2c3c(cc4c2CCC4)CCC3)o1 | < 4.52 | 43.9 (≈ 13.1 µg/mL) |  |  |
| CCOC(=O)c1cnc(Nc2c3c(cc4c2CCC4)CCC3)s1 | < 4.52 |  |  |  |
| CN(C)S(=O)(=O)NC(=O)c1coc(Nc2c3c(cc4c2CCC4)CCC3)n1 |  | 436 (≈ 170 µg/mL) | 2.8 | pIC50 [5]: 5.11; Papp at 2 h, 25 µM [4]: 48.5 ×10⁻⁶ cm/s |
| CC(C)c1ccc2c(c1Nc1nc(C(=O)NS(=O)(=O)N(C)C)co1)CCC2 |  |  | 2.9 | pIC50 [5]: 5.24 |
| O=C(O)c1cnc(Nc2c3c(cc4c2CCC4)CCC3)o1 | 5.62 | 442 (≈ 126 µg/mL) | 1.8 | Papp at 2 h, 25 µM [4]: 4 ×10⁻⁶ cm/s |
| Cc1ccc(C(F)(F)F)cc1Nc1nc(C(=O)NS(=O)(=O)N2CCOCC2)co1 | 7.42 |  | 2.2 | pIC50 [5]: 5.10; fraction unbound [6]: < 0.001 |
| Cc1ccc(C(F)(F)F)cc1Nc1nc(C(=O)NS(=O)(=O)N2CCCN(S(C)(=O)=O)CC2)co1 |  |  | 2.4 | fraction unbound [6]: 0.011 |
| Cc1ccc2c(c1Nc1nc(C(=O)NS(=O)(=O)N(C)C)co1)CCC2 |  |  | 2.3 | pIC50 [5]: 4.74 |
| COC(=O)CN1CC(=O)N(c2c3c(cc4c2CCC4)CCC3)C1=O | < 4.52 |  |  |  |
| Cc1ccc(C(F)(F)F)nc1Nc1nc(C(=O)NS(=O)(=O)N(C)C)co1 |  |  | 2.1 | pIC50 [5]: 5.33 |
| CCOC(=O)c1nnc(Nc2c3c(cc4c2CCC4)CCC3)o1 | 5.05 |  |  |  |
| COC(=O)c1ccnc(Nc2c3c(cc4c2CCC4)CCC3)n1 | < 4.52 |  |  |  |
| Cc1ccc(C(F)(F)F)cc1Nc1nc(C(=O)NS(=O)(=O)N2CCCOCC2)co1 |  | 444 (≈ 199 µg/mL) | 2.4 | fraction unbound [6]: 0.009; Papp at 2 h, 25 µM [4]: 27.8 ×10⁻⁶ cm/s; pIC50 [7]: < 4.52; fraction unbound [8]: 0.034; fraction unbound [9]: 0.062; remaining at 1 h [10]: 71.2%; remaining at 1 h [11]: 90.3%; remaining at 1 h [12]: 45.5%; remaining at 1 h [13]: 90%; MRT [14]: 4.7 h; clearance [15]: 1 mL/min/kg; Vd [16]: 0.28 L/kg; Cmax [17]: 3.8 µM; MRT [18]: 6.3 h; bioavailability [19]: 121%; pIC50 (Cytochrome P450 3A4): < 5.00; Activity (Mus musculus [20]): Dose-Dependent Effect; Activity (Mus musculus [21]): Dose-Dependent Effect; pIC50 (THP-1): 7.55 |
| Cc1ccc(C)c(Nc2nc(C(=O)NS(=O)(=O)N(C)C)co2)c1 | 6.29 |  | 2 | pIC50 [5]: 4.96 |
